This note sets out measurements from paper PMC8721871 (Biochemistry, 2021).

Holding throughout (assay type): biochemical, Prescottella equi
Holding throughout (conditions): 50 mM HEPES pH 7.5, 25 °C (Methods: 2.5 mM HEPES)

Experiment [1] deals with ReNHase (Fe-type nitrile hydratase). In words: spectrophotometric, […],4-dihydroxybenzamide formation at […] nm.
For experiment [2] the test system is unchanged. In words: spectrophotometric, 3-hydroxybenzamide formation at […] nm.
Experiment [3] shares this test system. In words: spectrophotometric, acetamide formation at […] nm.
Experiment [4] has the same test system. In words: spectrophotometric, acrylamide formation at […] nm.
For experiment [5] the test system is unchanged. In words: spectrophotometric, benzamide formation at […] nm.

With `N#Cc1ccc(O)c(O)c1` [3,4-dihydroxybenzonitrile], the Km in experiment [1] is 168 ± 21 µM.
Regarding `N#Cc1cccc(O)c1` [3-hydroxybenzonitrile], the Km in experiment [2] is 77 ± 17 µM.
As to `CC#N` [acetonitrile], the “Km (μM)” value in experiment [3] is reported as 25 000 ± 2000 μM.
As for `C=CC#N` [acrylonitrile], the “Km (μM)” value in experiment [4] is given as 25 000 ± 11 000 μM.
As to `N#Cc1ccccc1` [benzonitrile], in experiment [5], the Km was 13.2 ± 1.4 µM.

Broadly, the Km is the substrate concentration at which the rate is half of its maximum.
